Legend:
[1] = system: patients with mild or moderate Alzheimer's disease; test: Placebo-controlled clinical research, MMSE/CDR/ADL, mild or moderate Alzheimer's disease (Test Example 4); assay type: in vivo, human
Source text: 89 patients with mild or moderate Alzheimer's disease are divided into two groups randomly, one of which take ginsenoside Rg3, and the other placebos. There are 46 patients in the group taking Rg3, with 21 male and 25 female, aged from 58 to 87 (72.6±6.8), scoring from 10 to 24 (17.8±2.3) points in the mini-mental state examination (MMSE); there are 43 patients taking placebos, with 19 male and 24 female aged from 57 to 88 (71.8±8.2), scoring from 10 to 24 (18.2±2.7) points in MMSE. There are no obvious differences between the ginsenoside Rg3 group and the placebo group with respect to gender, age and MMSE scores. The patents in the group taking ginsenoside Rg3 use the ginsenoside Rg3 naristillae once a day for 12 continuous weeks, with 10 mg/ml for each time.
For the patients taking placebos, except that what is used for intranasal administration are placebos, the rest is conducted according to the same administration method as that adopted by those taking ginsenoside Rg3.
The ginsenoside Rg3 naristillae has a concentration of 10 mg/ml, and colors, characters, tastes and dosages of the placebos are the same as those of the ginsenoside Rg3 naristillae. The ginsenoside Rg3 naristillae and the placebos are applied once a day for 12 continuous weeks. Examination is conducted once every four weeks before and after medication, and the examination method is as follows:
(§1) (1) MMSE Screening of AD: examining patients' cognitive functions (orientation, memory, computational power, language competence, ability in applying visual-spatial segment etc.; (2) Examining patents' dementia degrees using the clinical dementia rating (CDR); (3) Examining patents' activities of daily living using the activity of daily living scale (ADL).
SPSS statistical software is adopted for examination results. T-test is adopted before and after treatment, and it is also adopted for the ginsenoside Rg3 naristillae group and the placebo control group. For scoring results of MMSE, CDR and ADL of patients with AD before treatment, see table 5

[2] = system: patients with mild or moderate Alzheimer's disease; test: Self-controlled clinical research, MMSE/CDR/ADL, mild or moderate Alzheimer's disease (Test Example 5); assay type: in vivo, human
Method: 99 patients with mild or moderate Alzheimer's disease, among which 47 are male, 52 are female, all aged from 55 to 85 (73.5±7.6), MMSE score is […] (16.3±2.6) points.
Patients with AD all use the ginsenoside Rg3 naristillae once a day, 10 mg/ml each time, and keep using it for 12 weeks.
Examination is conducted once every four weeks before and after medication, and the medication method is as follows:
as §1, with “MMSE screening” for “MMSE Screening”, “visual-spatial” for “visual-spatial segment”, “dementia degree” for “dementia degrees”, “(3) examining” for “(3) Examining”
SPSS statistical software is adopted for examination results. T-test is adopted before and after treatment, and it is also adopted for the ginsenoside Rg3 naristillae group and the placebo control group.

[3] = Content of ginsenoside Rg3 in rat cerebrospinal fluid (BBB test, LC/MS/MS); assay type: in vivo, SD rats; settings: rats, orally 10 mg/kg
Method: 1) Oral administration: an oral preparation of ginsenoside Rg3 is given to SD rats by lavage, the medicines of all high-dosage, medium-dosage and low-dosage groups are: 20, 10 and 5 mg/kg (the dosage above is pure dosage of Rg3)/bid, respectively, and each dosage group has 18 rats;
Rat cerebrospinal fluid is sucked after orally, topically and injection administering different preparations of ginsenoside Rg3 for 4 hours. […] Each rat is anesthetized with 10% chloral hydrate by intraperitoneal injection, the head of the rat is fixed by brain straight body positioning ear rods and front tooth rods, the occipital region is sheared and sterilized, and a longitudinal incision (about 2 cm) is cut along the posterior midline, and the muscles at the dorsal part of napex are bluntly separated with a pair of scissors. […]
The medicine concentrations in the rat cerebrospinal fluid are determined by LC/MS/MS methods. […]

[4] = cited from earlier work
[5] = cited from earlier work; remark: listed apart in the source
[6] = 46 AD patients, Rg3 naristillae 10 mg/ml intranasal once a day
[7] = 99 AD patients, Rg3 naristillae 10 mg/ml once a day
[8] = Test Example 5, versus before treatment

Structure (SMILES): CC(C)=CCC[C@](C)(O)[C@H]1CC[C@]2(C)[C@@H]1[C@H](O)C[C@@H]1[C@@]3(C)CC[C@H](O[C@@H]4O[C@H](CO)[C@@H](O)[C@H](O)[C@H]4O[C@@H]4O[C@H](CO)[C@@H](O)[C@H](O)[C@H]4O)C(C)(C)[C@@H]3CC[C@]12C [Ginsenoside Rg3, 20(R)-ginsenoside Rg3]
- ADL score before treatment ([1]; 46 AD patients, baseline): 47.2 ± 7.9 points
- CDR score before treatment ([1]; 46 AD patients, baseline): 1.9 ± 0.3 points
- MMSE score before treatment ([1]; 46 AD patients, baseline): 17.8 ± 2.3 points
- ADL score after treatment for 12 weeks [1, 6]: 40.5 ± 7.6 points
- CDR score after treatment for 12 weeks [1, 6]: 1.2 ± 0.2 points
- MMSE score after treatment for 12 weeks ([1]; 46 AD patients, Rg3 naristillae (embodiment 29) 10 mg/ml intranasal once a day): 24.1 ± 2.0 points
- decrease of ADL score after treatment compared with before treatment ([1]; Test Example 4, Rg3 naristillae, 12 weeks): 7.1 points
- ADL score before treatment ([2]; 99 AD patients, baseline): 49.6 ± 8.2 points
- CDR score before treatment ([2]; 99 AD patients, baseline): 2.1 ± 0.3 points
- MMSE score before treatment ([2]; 99 AD patients, baseline): 16.3 ± 2.6 points
- ADL score, treatment for 4 weeks [2, 7]: 48.2 ± 7.9 points
- ADL score, treatment for 12 weeks [2, 7]: 42.5 ± 7.3 points
- CDR score, treatment for 4 weeks [2, 7]: 1.9 ± 0.2 points
- CDR score, treatment for 12 weeks [2, 7]: 1.5 ± 0.2 points
- MMSE score, treatment for 4 weeks [2, 7]: 17.1 ± 1.9 points
- MMSE score, treatment for 12 weeks [2, 7]: 19.8 ± 1.7 points
- decrease of ADL score after treatment [2, 8]: 7.1 points
- decrease of CDR score after treatment for 12 weeks [2, 8]: 0.6 points
- increase of MMSE score after treatment for 12 weeks [2, 8]: 3.5 points
- Ginsenoside Rg3 in cerebrospinal fluid sample (FIG. 2C chromatogram) [3]: 10.8 ng/g
- medicine in native form not absorbed and excreted through feces ([4]; animal pharmacokinetic experiments, oral preparations): about 80%
- oral absorption percentage ([4]; oral): about 10.28%
- lipid solubility and water solubility [5]: relatively poor
